The text below walks through data of PubChem BioAssay AID192 (DTP/NCI, 2004).

The assay concerns BDF1 mice, B16 melanoma ip, median survival T/C. As to the kind of experiment: NCI In Vivo Anticancer Drug Screen. Data for tumor model B16 Melanoma (intraperitoneal) in B6D2F1 (BDF1) mice. The following applies: endpoint: median survival time, higher = longer survival. In a few lines:
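Mice with transplantable tumors; drug vs vehicle groups; endpoint survival or tumor size; value = T/C.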

The mark [1] stands for this setting: dose: 100.0 mg/kg/injection, schedule: Q01DX009 (ip), vehicle: Klucel (hydroxypropylcellulose) (HPC).
Setting [2] is: dose: 200.0 mg/kg/injection, schedule: Q01DX009 (ip), vehicle: Klucel (hydroxypropylcellulose) (HPC).
The mark [3] stands for this setting: dose: 400.0 mg/kg/injection, schedule: Q01DX009 (ip), vehicle: Klucel (hydroxypropylcellulose) (HPC).
Setting [4] is: dose: 12.5 mg/kg/injection, schedule: Q01DX009 (ip), vehicle: saline with Tween-80.
Where [5] appears, read: dose: 25.0 mg/kg/injection, schedule: Q01DX009 (ip), vehicle: saline with Tween-80.
[6] abbreviates: dose: 6.25 mg/kg/injection, schedule: Q01DX009 (ip), vehicle: Klucel (hydroxypropylcellulose) (HPC).
[7] abbreviates: dose: 12.5 mg/kg/injection, schedule: Q01DX009 (ip), vehicle: Klucel (hydroxypropylcellulose) (HPC).
Where [8] appears, read: dose: 25.0 mg/kg/injection, schedule: Q01DX009 (ip), vehicle: Klucel (hydroxypropylcellulose) (HPC).
The mark [9] stands for this setting: dose: 50.0 mg/kg/injection, schedule: Q01DX009 (ip), vehicle: Klucel (hydroxypropylcellulose) (HPC).
Where [10] appears, read: dose: 1.5 mg/kg/injection, schedule: Q01DX009 (ip), vehicle: saline with Tween-80.
[11] abbreviates: dose: 3.0 mg/kg/injection, schedule: Q01DX009 (ip), vehicle: saline with Tween-80.
Setting [12] is: dose: 6.0 mg/kg/injection, schedule: Q01DX009 (ip), vehicle: saline with Tween-80.
The mark [13] stands for this setting: dose: 12.5 mg/kg/injection, schedule: Q01DX009 (ip), vehicle: saline.
Where [14] appears, read: dose: 25.0 mg/kg/injection, schedule: Q01DX009 (ip), vehicle: saline.
Where [15] appears, read: dose: 50.0 mg/kg/injection, schedule: Q01DX009 (ip), vehicle: saline.

Where “and” joins values, the source holds several entries; their conditions need not be identical. Equal entries are not always repeated. Toxic doses and inconclusive results are not listed.

In the case of `Cc1cc(C)nc(NS(=O)(=O)c2ccc(N=Nc3nc4[nH]c(N)nc(=S)c4[nH]3)cc2)n1`, the T/C (dose: 0.19 mg/kg/injection, schedule: Q01DX009 (ip), vehicle: Klucel (hydroxypropylcellulose) (HPC)) was 115 % of control; the T/C (dose: 0.39 mg/kg/injection, schedule: Q01DX009 (ip), vehicle: Klucel (hydroxypropylcellulose) (HPC)) was 111 % of control; the T/C (dose: 0.78 mg/kg/injection, schedule: Q01DX009 (ip), vehicle: Klucel (hydroxypropylcellulose) (HPC)) is 105 % of control; the T/C (dose: 1.56 mg/kg/injection, schedule: Q01DX009 (ip), vehicle: Klucel (hydroxypropylcellulose) (HPC)) was 102 % of control.

For `C=CCOCC(O)CN1CCC(C)CC1` (stereo unspecified), the T/C by setting is: (dose: 25.0 mg/kg/injection, schedule: Q04DX003 (ip), vehicle: Klucel (hydroxypropylcellulose) (HPC)) 88 % of control; (dose: 50.0 mg/kg/injection, schedule: Q04DX003 (ip), vehicle: Klucel (hydroxypropylcellulose) (HPC)) 101 % of control; (dose: 100.0 mg/kg/injection, schedule: Q04DX003 (ip), vehicle: Klucel (hydroxypropylcellulose) (HPC)) 107 % of control.

For the molecule `COc1ccc(C2=CC(=O)N(C(C)C)C2=O)cc1`, the T/C (dose: 20.0 mg/kg/injection, schedule: Q04DX003 (ip), vehicle: saline with Tween-80) is 109 % of control; the T/C (dose: 40.0 mg/kg/injection, schedule: Q04DX003 (ip), vehicle: saline with Tween-80) was 113 % of control; the T/C (dose: 80.0 mg/kg/injection, schedule: Q04DX003 (ip), vehicle: saline with Tween-80) was 111 % of control.

In the case of `CCN(CC)CCOC(=O)Cc1ccccc1`, the T/C was 106 % of control under setting [1], 103 % of control under setting [2] and 103 % of control under setting [3].

For the molecule `CC(C)CCC[C@@H](C)[C@H]1CC[C@H]2[C@@H]3CC=C4C[C@@H](OC(=O)Cc5ccc(N(CCCl)CCCl)cc5)CC[C@]4(C)[C@H]3CC[C@]12C`, the T/C by setting is: (dose: 50.0 mg/kg/injection, schedule: Q01DX009 (oral), vehicle: saline) 108 % of control; (dose: 100.0 mg/kg/injection, schedule: Q01DX009 (oral), vehicle: saline) 104 % of control; (dose: 200.0 mg/kg/injection, schedule: Q01DX009 (oral), vehicle: saline) 110 % of control; (dose: 400.0 mg/kg/injection, schedule: Q01DX009 (oral), vehicle: saline) 104 % of control; (dose: 800.0 mg/kg/injection, schedule: Q01DX009 (oral), vehicle: saline) 110 % of control.

Take `CCN(CC)CCOc1ccc(NC2=C(Cl)C(=O)C(Nc3ccc(OCCN(CC)CC)cc3)=C(Cl)C2=O)cc1`: the T/C (dose: 6.25 mg/kg/injection, schedule: Q01DX009 (ip), vehicle: saline + alcohol) was 95 % of control; the T/C (dose: 12.5 mg/kg/injection, schedule: Q01DX009 (ip), vehicle: saline + alcohol) was 98 % of control; the T/C (dose: 25.0 mg/kg/injection, schedule: Q01DX009 (ip), vehicle: saline + alcohol) is 91 % of control.

On to `CN1C(=O)C(=Cc2ccc(O)cc2)C(=O)N(C)C1=O`, for which the T/C is, setting by setting: under setting [4], 101 % of control; under setting [5], 97 % of control.

For the molecule `NCCCN=c1ccc2c3c1c(O)c1c(O)ccc(=O)c1c3[nH]n2CCNCCO`, the T/C is, setting by setting: (dose: 0.5 mg/kg/injection, schedule: Q01DX009 (ip), vehicle: water) 158 % of control and 197 % of control; (dose: 1.0 mg/kg/injection, schedule: Q01DX009 (ip), vehicle: water) 187 % of control and 227 % of control; (dose: 2.0 mg/kg/injection, schedule: Q01DX009 (ip), vehicle: water) 216 % of control and 242 % of control; (dose: 4.0 mg/kg/injection, schedule: Q01DX009 (ip), vehicle: water) 216 % of control and 244 % of control; (dose: 8.0 mg/kg/injection, schedule: Q01DX009 (ip), vehicle: water) 216 % of control and 338 % of control; (dose: 16.0 mg/kg/injection, schedule: Q01DX009 (ip), vehicle: water) 158 % of control.

`CC(=O)NC(Cc1cc(I)c(O)c(I)c1)C(=O)O` (stereo unspecified): the T/C reads like this: under setting [6], 103 % of control; under setting [7], 108 % of control; under setting [8], 96 % of control and 101 % of control; under setting [9], 95 % of control; under setting [1], 98 % of control; under setting [2], 93 % of control.

On to `NC(CCl)=NCC12CC3CC(CC(C3)C1)C2`, for which the T/C (dose: 3.0 mg/kg/injection, schedule: Q01DX009 (ip), vehicle: Klucel (hydroxypropylcellulose) (HPC)) is 110 % of control; the T/C (dose: 3.12 mg/kg/injection, schedule: Q01DX009 (ip), vehicle: Klucel (hydroxypropylcellulose) (HPC)) was 100 % of control; the T/C (dose: 6.0 mg/kg/injection, schedule: Q01DX009 (ip), vehicle: Klucel (hydroxypropylcellulose) (HPC)) was 100 % of control; the T/C (dose: 12.0 mg/kg/injection, schedule: Q01DX009 (ip), vehicle: Klucel (hydroxypropylcellulose) (HPC)) was 107 % of control; the T/C (dose: 24.0 mg/kg/injection, schedule: Q01DX009 (ip), vehicle: Klucel (hydroxypropylcellulose) (HPC)) was 102 % of control; the T/C (dose: 48.0 mg/kg/injection, schedule: Q01DX009 (ip), vehicle: Klucel (hydroxypropylcellulose) (HPC)) was 120 % of control.

As for `O=[N+]([O-])c1cc(F)cc([N+](=O)[O-])c1O`, the T/C runs as follows: under setting [7], 124 % of control; under setting [8], 103 % of control; under setting [9], 96 % of control.

In the case of `C=C1C(=O)OC2CC1C(OC(C)=O)CC1(C)OC1CCC1(C)OC1CCC2(C)O` (stereo unspecified), the T/C by setting is: under setting [6], 102 % of control; under setting [7], 97 % of control; under setting [8], 100 % of control; under setting [9], 92 % of control.

As for `Cc1c2cccc(F)c2c[n+]2ccccc12`, the T/C under setting [6] was 100 % of control, the T/C under setting [7] is 100 % of control and the T/C under setting [8] was 106 % of control.

As to `CSC(=S)N/N=C/c1ccccn1`, the T/C is, setting by setting: (dose: 0.75 mg/kg/injection, schedule: Q01DX009 (ip), vehicle: saline with Tween-80) 86 % of control; under setting [10], 89 % of control; under setting [11], 86 % of control; under setting [12], 94 % of control; under setting [4], 110 % of control; under setting [5], 105 % of control.

Take `Nc1[nH]c(=O)nc2nc[nH]c12`: the T/C is, setting by setting: under setting [13], 108 % of control; under setting [14], 94 % of control; under setting [15], 89 % of control.

Regarding `CC1C[N-]CC(C)C1.CC1C[N-]CC(C)C1.CC1C[N-]CC(C)C1.CC1C[N-]CC(C)C1.[Cl][Rh][Cl]` (stereo unspecified), the T/C is 91 % of control under setting [10]; 107 % of control under setting [11]; 116 % of control (dose: 3.0 mg/kg/injection, schedule: Q01DX009 (ip), vehicle: saline); 93 % of control under setting [12]; 116 % of control (dose: 6.0 mg/kg/injection, schedule: Q01DX009 (ip), vehicle: saline).

Turning to `O=C(c1ccccc1)C1NC1c1ccccc1` (stereo unspecified), the T/C was 100 % of control (dose: 20.0 mg/kg/injection, schedule: Q01DX009 (ip), vehicle: Klucel (hydroxypropylcellulose) (HPC)); 97 % of control (dose: 40.0 mg/kg/injection, schedule: Q01DX009 (ip), vehicle: Klucel (hydroxypropylcellulose) (HPC)); 94 % of control (dose: 80.0 mg/kg/injection, schedule: Q01DX009 (ip), vehicle: Klucel (hydroxypropylcellulose) (HPC)).

With `CCCCCCCCC(=O)N1CC(C)OC(C)C1` (stereo unspecified), the T/C reads like this: under setting [1], 103 % of control; under setting [2], 89 % of control; under setting [3], 94 % of control.

For the molecule `C1=CC2(OCCO2)C2CC=CC3(OCCO3)C2C1` (stereo unspecified), the T/C by setting is: under setting [9], 104 % of control; under setting [1], 97 % of control.

For `C[N+](C)([O-])CCC=C1c2ccccc2CCc2ccccc21`, the T/C is, setting by setting: (dose: 6.25 mg/kg/injection, schedule: Q01DX009 (ip), vehicle: saline) 95 % of control; under setting [13], 90 % of control; under setting [15], 90 % of control.

As to `Oc1ccc(O)cc1`, the T/C (dose: 0.78 mg/kg/injection, schedule: Q01DX009 (ip), vehicle: saline) is 92 % of control; the T/C (dose: 1.56 mg/kg/injection, schedule: Q01DX009 (ip), vehicle: saline) is 89 % of control; the T/C (dose: 3.12 mg/kg/injection, schedule: Q01DX009 (ip), vehicle: saline) is 89 % of control; the T/C under setting [14] is 89 % of control and 117 % of control; the T/C under setting [15] was 96 % of control and 118 % of control.
